Results from patent US7741274B2, “Casein derived peptides and uses thereof in therapy” (priority 2000, dated 2010).

Legend:
[1] = tested on: murine primary bone marrow cells; assay: Multipotential colonies (CFU-GEMM) from murine bone marrow cells, colony and differential counts; format: cell-based, mouse; details: for megakaryocyte formation and development: 8 days treatment
Method: Stimulation of Hematopoiesis from Bone Marrow (BM) Cells in Culture:
Proliferation of megakaryocytes in multipotential colonies (CFU-GEMM) from murine Bone Marrow cells: Primary bone marrow cells (1×10^5 per ml) from 8-12 week-old C3H/HeJ mice were grown in serum-free methyl cellulose-IMDM medium for 8-9 days at 5% CO2, 95% air, at 37° C. The medium, appropriate for the growth of multipotential colonies (CFU-GEMM), contained 1% BSA (Sigma), 10^−4 M thioglycerol (Sigma), 2.8×10^−4 M human transferrin (TF, Biological industries, Israel), 10% WEHI-CM as a source of IL-3 and 2 units per ml erythropoietin (rhEPO, R & D Systems, Minneapolis). Colonies were scored after 8-9 days using an Olympus dark field microscope. They were picked with a micropipette, cytocentrifuged and stained with May-Grunwald-Giemsa for differential counts. At least 700 cells were counted for each preparation. […]
Proliferation of Macrophage cells in CFU-GEMM: Multipotent (CFU-GEMM colonies grown from primary bone marrow cells as described for the assay of megakaryocyte proliferation above were collected, stained and counted for macrophage cells. At least 700 cells were counted for each preparation.
Proliferation of Red Blood Cells in CFU-GEMM: Multipotent (CFU-GEMM) colonies grown from primary bone marrow cells as described for the assay of megakaryocyte proliferation above were collected, stained and counted for red blood cells. At least 700 cells were counted for each preparation. […]

HIV-1IIIB [2] = assay: Inhibition of HIV-1 infection of CEM lymphocytes (cell counts, P24 antigen assay); format: cell-based; details: for cell counts: infected control 1.06×10^6; for HIV-1 infection level, P24 antigen: 7 days post infection, control 0.52
Method: (§1) Inhibition of in vitro HIV infection of human lymphocyte cells:
(§2) Peptides: Peptides (either peptides derived from natural casein or synthetic peptides derived from casein (1-25 amino acids in length, see table 3) supplied as lyophilized powder were resuspended in RPMI complete medium and added to cell cultures at a final concentrations of 50 to 1000 μg per ml.
(§3) Cells: Several types of freshly isolated human cells (primary cells) and cell lines are known to be susceptible to in vitro HIV-1 infection, although essentially any cell displaying even low surface levels of the CD4 molecule can be considered a potential target for HIV-1 infection. Two commonly used human cell lines which are highly sensitive for HIV-1 infection were chosen, CEM and Sup-T1.
CEM is a human T4-lymphoblastoid cell line initially derived by G. E. Foley et al. [(1965), Cancer 18:522] from peripheral blood buffy coat of a person with acute lymphoblastic leukemia. These cells were continuously maintained in suspension in medium, and have been used widely for analysis of infectivity, antiviral agents and neutralizing antibodies.
Virus: The HIV virus strain employed was HIV-1IIIB, originally designated HTLV-IIIB. Concentrated culture fluids of peripheral blood from several patients with AIDS or related diseases were used to establish a permanent productive infection in H-9 cells. This subtype B virus has high capacity to replicate in human T-cell lines. Viral titer was 5.38 ng per ml in stock solution.
HIV-1 P24 antigen capture assay: An HIV-1 P24 Antigen capture assay kit employed was designed to quantitate the HIV-1 P24 core antigen, which is proportionally related to the degree of viral production in cells. This kit was purchased from the AIDS Vaccine program of the SAIC-NCI-Frederick Cancer Research Institute, P.O. Box B, Frederick, Md. 21702, USA and included 96 well plates coated with monoclonal antibody to HIV-1 P24, primary antibody-rabbit anti-HIV P24 serum, secondary antibody-Goat anti-rabbit-IgG (H+ L) peroxidase conjugated antibody, TMB peroxidase substrate system and lysed HIV-1 P24 standard. The HIV-1 P24 antigen capture assay was analyzed by Organon-Technica ELISA reader at 450 nm with a reference at 650 nm.
HIV-1 P24 antigen capture ELISA: HIV infection was measured with an indirect enzyme immunoassay which detects HIV-1 P24 core antigens in tissue culture media. Tissue culture supernatant was reacted with primary rabbit anti-HIV-1 P24 antigen and visualized by peroxidase conjugated goat anti rabbit IgG. The reaction was terminated by adding 4N H2SO4, wherein the intensity of the color developed is proportional to the amount of HIV-1 antigen present in the tissue culture supernatant.
HIV infection of human cultured CD4+ cells: The cells (CEM, Sup-T1) were preincubated with several increasing concentrations of peptides derived from natural casein (50-1000 μg per ml) or synthetic peptides derived from casein (10-500 μg per ml) for 3, 24 (for synthetic and natural peptides) and 48 (only for natural peptides) hours and HIV-1IIIB (45 μg per ml final concentration) was added to each well thereafter. HIV-1IIIB was preincubated with the peptides for 3 hours and then added to cells (5000 cells/well) in tissue culture plates. Controls were IF (Infected, cells cultured with HIV-1 and without peptides), UIF (Uninfected, cells cultured without HIV-1 and without peptides) and UIF+Ch (Uninfected+peptides derived from natural casein, cells cultured in the presence of peptides derived from natural casein {50-1000 μg per ml}) to test the effect of peptides derived from natural casein and synthetic peptides derived from casein on cell viability and growth. Cells were counted for viability and proliferation rate on day 7, 10 and day 14 post infection (the day of P24 antigen culture supernatant harvest). Cells and tissue culture supernatants (media) were harvested and lysed immediately in 1/10 volume of 10% Triton X-100. […]

[3] = tested on: female C57B1/6j mice fed an atherogenic diet; assay: Diet-induced hypercholesterol/hyperlipidemia in C57B1/6j mice; format: in vivo; details: one week post 1 mg per mouse i.p.; diet control 52
Method: The ability of synthetic casein derived peptides to reduce cholesterol levels in 7-week old female C57B1/6j mice was assessed after feeding an atherogenic diet. The mice were divided into groups of 8. One control group was fed a normal diet. A second control group was fed the modified Thomas Hartroft diet containing cholate (#TD 88051: Teklad, Madison, Wis.) [Gerber, D. W. et al. (2000), Journal of Lipid Research. 42, 2001]. The remaining experimental groups were all fed the modified Thomas Hartroft diet.
Cholesterol blood levels were determined according to Roche Cholesterol Assay based on Roeschlou & Allin enzymatic method (Roche, Inc., Germany).

[4] = tested on: Non-Obese Diabetic (NOD) mice; assay: Prevention of glucosuria / Juvenile (Type I, IDDM) Diabetes in NOD mice; format: in vivo, mouse; details: 100 μg once weekly for 5 weeks, evaluated after 25 weeks; for Healthy/Total* (healthy and well = sugar not detected in urine): female NOD mice
Method: Juvenile (Type I, IDDM) Diabetes in Non-Obese Diabetic (NOD) Mice:
Peptides Derived from Natural Casein:
NOD mice are a commonly used model for research of autoimmune disease and human Juvenile Diabetes. Six week old female NOD mice received either one or two injections per week of 100 μg of peptides derived from natural casein, for a total of 5 or 11 treatments. Control mice received no treatment. The severity of disease was determined according to glucosuria, which was measured using Combi test sticks [Gross, D. J. et al. (1994), Diabetology, 37:1195]. Results were expressed as the percent of glucosuria-free mice in each sample over a 365-day period.
Synthetic Peptides Derived from Casein:
In another experiment, 6 week old female NOD mice received one injection per week of 100 μg of Synthetic peptides derived from casein for a total of 5 treatments. Control mice received no treatment. Results were expressed as the number of healthy mice in the various treated groups.

HIV-1IIIB [5] = assay: Inhibition of HIV-1 infection of Sup-T1 cells; format: cell-based
Method: as §1, §2
as §3, with “Sup-T1. […]” for “Sup-T1.”
HIV-1 P24 antigen capture assay: An HIV-1 P24 Antigen capture assay kit employed was designed to quantitate the HIV-1 P24 core antigen, which is proportionally related to the degree of viral production in cells. […] The HIV-1 P24 antigen capture assay was analyzed by Organon-Technica ELISA reader at 450 nm with a reference at 650 nm.
HIV-1 P24 antigen capture ELISA: HIV infection was measured with an indirect enzyme immunoassay which detects HIV-1 P24 core antigens in tissue culture media. […]

[6] = tested on: Non-Obese Diabetic (NOD) mice; assay: Intraperitoneal Glucose Tolerance Test (IPGTT) in NOD mice; format: in vivo, mouse; design: IPGT TEST 0 min. (pre-load), plasma glucose: unit not given here; details: for IPGT test result (in words): healthy NOD mice after 25 weeks; for IPGT TEST 0 min. (pre-load), plasma glucose: individual healthy NOD mice, 25 weeks after peptides
Method: Intraperitoneal Glucose Tolerance Test (IPGTT):
The glucose tolerance test is the definitive method for investigating glucose metabolism and diabetic tendencies in mammals. Twenty five (25) weeks after receiving Synthetic peptides derived from casein, response to a glucose load was assessed with an intraperitoneal glucose tolerance test. Glucose injection consisted of 1 g/kg body weight. Glycemic values were determined from blood drawn prior to test (0 minutes) and 60 minutes after loading.

human bone marrow cells = assay: Colony assays of human bone marrow cells (CFU-GM, erythroid, megakaryocyte, CFU-GEMM); format: cell-based; details: TPO-treated cells without peptides
Method: Proliferation of megakaryocyte- and erythroid forming cells from human bone marrow and cord blood cells: A sample of bone marrow from an apparently healthy human being was processed by density gradient separation using Histopaque-107 (Sigma Diagnostics) to obtain a purified population of mononuclear cells (MNC). […]
Colony assay medium containing 10^5 MNC per ml was plated in triplicate wells within a 24 well tissue culture plate (Greiner), 0.33 ml per well. […] Plates were scored after 14 days for colonies containing more than 50 cells. […]
Megakaryocytopoiesis was measured in normal bone marrow cells from healthy consenting human donors by either scoring of the number of megakaryocytes in samples of liquid culture (RPMI-1640 plus 10% human AB serum, glutamine and antibiotics) with or without 100 μg per ml peptides derived from natural casein, or in a methylcellulose assay for assessing colony formation. […] In the methylcellulose assay megakaryocytes were counted with an inverted microscope on days 12-14 after seeding.

Substance	megakaryocyte formation and development [1]	cell counts (HIV-1IIIB [2]; 10 μg per ml, 3 hours pretreatment)	HIV-1 infection level, P24 antigen (HIV-1IIIB [2]; 10 μg per ml) [ng P24 Ag per ml]	cell counts (HIV-1IIIB [2]; 25 μg per ml, 3 hours pretreatment)	HIV-1 infection level, P24 antigen (HIV-1IIIB [2]; 25 μg per ml) [ng P24 Ag per ml]	resistance of CEM cells to HIV-1 infection (in words) (HIV-1IIIB [2]; 3 hours pretreatment)	HDL [3] [mg/dL]	macrophages, % of total cell count ([1]; approximately 17% in unincubated controls) [%]	prevention of glucosuria (in words) [4]	Healthy/Total* (healthy and well = sugar not detected in urine) [4]	increase in lymphocyte cell number in infected cells (HIV-1IIIB [5]; 250 μg) [%]	increase in lymphocyte cell number in infected cells (HIV-1IIIB [5]; 500 μg per ml) [%]	IPGT test result (in words) [6]	IPGT TEST 0 min. (pre-load), plasma glucose [6]	megakaryocyte (MK) colonies (human bone marrow cells) [colonies per 2×10^5 cells]
RPKHP [3P]	significant increase	1.17 ×10^6	0.26	1.26 ×10^6	0.18	significant inhibition of HIV-1 infection	41	–	–	–	–	–	–	–	–
RPKHPIKHQ [X]	–	–	–	–	–	–	–	~30	highly effective	3/5	80	33	no evidence of abnormal glucose metabolism	94	–
RPKHPIKHQGL [2a]	significant increase	–	–	–	–	–	40	–	highly effective	4/5	–	–	The other two mice remained within normal glycemic range	95	–
TPO: thrombopoietin, hematopoietic growth factor that stimulates megakaryocyte colony formation	–	–	–	–	–	–	–	–	–	–	–	–	–	–	16
